Assay results: patent US12391676B2 (H. LEE MOFFITT CANCER CENTER AND RESEARCH INSTITUTE, INC., priority 2018, dated 2025)
Like-named read-outs stand apart in the source and are kept apart here.

Key:
MM1.S cells = assay: Antiproliferative activity, MM1.S cells; assay type: cell-based; conditions: Homo sapiens; for GI50: Table 2, read-out: GI50 (MM1S)
Method: Cellular activity of promising compounds is assessed using MM.1S and MV4-11 AML cells using c-Myc levels as biomarker (6-12 hr treatment) and antiproliferative activity (48-72 hr treatment) as described (Ciceri et al., Dual kinase-bromodomain inhibitors for rationally designed polypharmacology. Nat Chem Biol 2014).

UKE1 cells = assay: Growth inhibition GI50, UKE1 cells; assay type: cell-based
BRD4 = BRD4 (Homo sapiens (Human), UniProt O60885); assay: BRD4 DSF thermal shift (ΔTm); assay type: binding; conditions: for BRD4 DSF (ΔTm): Table 2
[1] = UKE1, Table 2, read-out: GI50 (UKE1)

Compound	GI50 (MM1.S cells)	BRD4 DSF (ΔTm) (BRD4)	IC50 (MM1.S cells; Table 1 comments)	DSF ΔTm (BRD4; Table 1)	GI50 (UKE1 cells; [1])	GI50 (UKE1 cells; UKE1, Table 1 comments, read-out: GI50 (UKE1 cells))
Cc1cnc(Nc2cc(F)c(C3CCN(C)CC3)cn2)nc1Nc1ccc(Cl)c(NS(=O)(=O)C(C)(C)C)c1 [PN1-064, N-(2-Chloro-5-((2-((4-fluoro-5-(1-methylpiperidin-4-yl)pyridin-2-yl)amino)-5-methylpyrimidin-4-yl)amino)phenyl)-2-methylpropane-2-sulfonamide]	0.043 µM	13.6 °C			0.054 µM	
Cc1cnc(Nc2ccc(OCCN3CCCC3)cc2)nc1Nc1ccc2c(c1)N(S(=O)(=O)C(C)(C)C)CC2 [MA11-006, N4-(1-(tert-butylsulfonyl)indolin-6-yl)-5-methyl-N2-(4-(2-(pyrrolidin-1-yl)ethoxy)phenyl)pyrimidine-2,4-diamine]	0.499 µM	11.0 °C			0.502 µM	
Cc1cnc(Nc2ccc(C3CCN(C)CC3)cc2)nc1Nc1cccc(NS(=O)(=O)C(C)(C)C)c1 [drawing 12]			0.091 µM	10.6 °C		0.22 µM
Cc1cnc(Nc2ccc(OCCN3CCCC3)c(F)c2)nc1Nc1ccc2c(c1)N(S(=O)(=O)C(C)(C)C)CC2 [MA11-007, N4-(1-(tert-butylsulfonyl)indolin-6-yl)-N2-(3-fluoro-4-(2-(pyrrolidin-1-yl)ethoxy)phenyl)-5-methylpyrimidine-2,4-diamine]	0.135 µM	13.7 °C			0.26 µM	
Cc1cnc(Nc2cc(F)c(C3CCN(C)CC3)c(F)c2)nc1Nc1cccc(NS(=O)(=O)C(C)(C)C)n1 [MA11-035, N-(6-((2-((3,5-difluoro-4-(1-methylpiperidin-4-yl)phenyl)amino)-5-methylpyrimidin-4-yl)amino)pyridin-2-yl)-2-methylpropane-2-sulfonamide]		5.1 °C			0.761 µM	
Cc1cnc(Nc2cc(F)c(C3CCN(C)CC3)c(F)c2)nc1Nc1ccc2ccn(S(=O)(=O)C(C)(C)C)c2n1 [MA11-012, N4-(1-(tert-butylsulfonyl)-1H-pyrrolo[2,3-b]pyridin-6-yl)-N2-(3,5-difluoro-4-(1-methylpiperidin-4-yl)phenyl)-5-methylpyrimidine-2,4-diamine]		3.9 °C			0.58 µM	
Cc1cnc(Nc2ccc(C3CCN(C)CC3)c(F)c2)nc1Nc1cnc(Cl)c(NS(=O)(=O)C(C)(C)C)c1 [MA11-016, N-(2-chloro-5-((2-((3-fluoro-4-(1-methylpiperidin-4-yl)phenyl)amino)-5-methylpyrimidin-4-yl)amino)pyridin-3-yl)-2-methylpropane-2-sulfonamide]		14.8 °C			0.11 µM	

Now from value to molecule, other results behind:

GI50 (MM1.S cells)	BRD4 DSF (ΔTm) (BRD4)	IC50 (MM1.S cells; Table 1 comments)	DSF ΔTm (BRD4; Table 1)	Compound	GI50 (UKE1 cells; [1])	GI50 (UKE1 cells; UKE1, Table 1 comments, read-out: GI50 (UKE1 cells))
0.152 µM	13.8 °C			Cc1cnc(Nc2cc(F)c(C3CCN(C)CC3)c(F)c2)nc1Nc1ccc2c(c1)N(S(=O)(=O)C(C)(C)C)CC2 [PN2-129, N^4-(1-(tert-butylsulfonyl)indolin-6-yl)-N^2-(3,5-difluoro-4-(1-methylpiperidin-4-yl)phenyl)-5-methylpyrimidine-2,4-diamine]	0.222 µM	
0.072 µM	13.4 °C			Cc1cnc(Nc2cc(F)c(C3CCN(C)CC3)cn2)nc1Nc1ccc(F)c(NS(=O)(=O)C(C)(C)C)c1 [PN2-089, N-(2-Fluoro-5-((2-((4-fluoro-5-(1-methylpiperidin-4-yl)pyridin-2-yl)amino)-5-methylpyrimidin-4-yl)amino)phenyl)-2-methylpropane-2-sulfonamide]	0.134 µM	
0.186 µM	12.8 °C			Cc1cnc(Nc2cc(F)c(C3CCN(C)CC3)cn2)nc1Nc1ccc2c(c1)N(S(=O)(=O)C(C)(C)C)CC2 [PN2-128, N^4-(1-(tert-Butylsulfonyl)indolin-6-yl)-N^2-(4-fluoro-5-(1-methylpiperidin-4-yl)pyridin-2-yl)-5-methylpyrimidine-2,4-diamine]	0.207 µM	
